# Reference: patent US6635245B1, “Strain of bacillus for controlling plant diseases” (priority 1999, dated 2003)
# Like-named read-outs stand apart in the source and are kept apart here.
# Experiments:
# Assay type in all cases: in vivo
# [1] = test system: Uromyces phaseoli; assay: Plant test, bean rust on snap bean; settings: snap bean seedlings; 40 ppm; 0 to 5 scale
# [2] = test system: Botrytis cinerea; assay: B-30087 and B-21661 whole broths alone and together, gray mold on pepper; settings: 20 ppm, 0 to 5 scale
# Procedure: A strain of B. pumilus, NRRL B-30087 was tested with B. subtilis, NRRL B-21661, to determine if the fungicidal effect was greater if used together, than if each strain were used alone. Each strain was grown in a 10 liter or 5,000 liter fermenter, in a soy flour-based medium for approximately 50 hours. Each strain was tested as a whole broth culture against Botrytis cinerea gray mold on pepper, and Peronospora parasitica downy mildew on Brassica. The whole broths were tested at 1X, 1/2X and 1/8X. The two strains were then tested in various combinations with each other at 1/2X, 1/4X and 1/8X. A water check (control) and a chemical fungicide (BREAK® at 20 ppm) were also tested for comparison.
# [3] = test system: Phytophthora infestans; settings: tomato seedlings, 0-5 scale
# [4] = test system: Bremia lactucae; assay: Plant test, downy mildew of lettuce (chemically-resistant strain); settings: lettuce seedlings, 0 to 5 scale
# [5] = test system: Peronospora parasitica; assay: Plant test, downy mildew of Brassica; settings: Brassica seedlings, 0 to 5 scale
# [6] = test system: Uncinula necator; assay: Plant test, grape powdery mildew; settings: grape seedlings (Chardonnay); 25 ppm; 0 to 5 scale
# Procedure: Grape seedlings (Chardonnay) were grown in two inch pots until the 6-9 true leaf stage. The culture of powdery mildew was maintained on grape seedlings at 22-26° C. under a 14 hour photoperiod. All but the youngest 2-4 leaves are removed. The NRRL Accession No. B-30087, the chemical fungicide (Rally®, myclobutanil at 25 ppm) and the water check are applied to runoff as above for the other pathogens tested. Four to five replications are used for each treatment. To inoculate with powdery mildew, leaves with mildew on maintenance seedlings are removed with scissors and each plant is inoculated individually. The surface of the maintenance seedling is gently brushed with a paintbrush so that spores are deposited onto the upper surface of the test plants. The procedure is performed using a 3× lighted magnification lens to assure all plants are getting equivalent inoculum. Flats with pots are placed in the dark for 16-24 hours at 20-24° C. Flats are kept at 22-26° C. with a 14 hour photoperiod for an additional 9-11 days until the test is read. […] The result using NRRL Accession No. B-30087 is shown below in Table 5.
compound,measurement,setting,value
"CCCC1COC(Cn2cncn2)(c2ccc(Cl)cc2Cl)O1 (stereo not drawn) [Break ®, propiconazole]",Score Rep 1,[1],0.0
same,Score Rep 2,[1],0.0
same,Score Rep 3,[1],0.5
same,Botrytis cinerea Average disease rating (4 plants),[2],0.2
"CO/C=C(/C(=O)OC)c1ccccc1Oc1cc(Oc2ccccc2C#N)ncn1 [Quadris, azoxystrobin]",Score Rep 1,[3]; 62.5 ppm,0.0
same,Score Rep 2,[3]; 62.5 ppm,0.5
same,Score Rep 3,[3]; 62.5 ppm,0.0
same,Score Rep 4,[3]; 62.5 ppm,0.5
same,Score Rep 5,[3]; 62.5 ppm,0.0
same,Score Rep 1,[3]; 125 ppm,0.0
same,Score Rep 2,[3]; 125 ppm,0.0
same,Score Rep 3,[3]; 125 ppm,0.0
same,Score Rep 4,[3]; 125 ppm,0.0
same,Score Rep 5,[3]; 125 ppm,0.0
"CCO[PH](=O)O [Aliette, fosetyl-al]",Score Rep 1,[4]; 240 ppm,5.0
same,Score Rep 2,[4]; 240 ppm,3.0
same,Score Rep 1,[5]; 240 ppm,5.0
same,Score Rep 2,[5]; 240 ppm,3.0
"CCCCC(C#N)(Cn1cncn1)c1ccc(Cl)cc1 (stereo not drawn) [Rally, myclobutanil]",Score Rep 1,[6],0.0
same,Score Rep 2,[6],0.0
same,Score Rep 3,[6],0.0
same,Score Rep 4,[6],0.0
"COCC(=O)N(c1c(C)cccc1C)C(C)C(=O)OC (stereo not drawn) [Ridomil, metalaxyl]",Score Rep 1,[4]; 125 ppm,3.0
same,Score Rep 2,[4]; 125 ppm,3.0
same,Score Rep 1,[5]; 125 ppm,4.0
same,Score Rep 2,[5]; 125 ppm,4.0
same,Score Rep 3,[5]; 125 ppm,4.0
